{"source": "patent US9586896B2", "about": "“Nitroxyl donors with improved therapeutic index” (Cardioxyl Pharmaceuticals, Inc., priority 2013, dated 2017)", "key": {"[1]": {"test": "In vitro stability (half-life) in dog plasma", "type": "in vitro ADME", "conditions": "male, dog plasma pH 7.4, anticoagulant, 37° C., read-out: T1/2 (minutes) Dog", "experimental": "Compound (1), compound (2), and CXL-1020 were tested for their stability in plasma. The assay system comprised (i) PBS, or plasma from rat, dog or human (at least 3 donors, male, pooled) at pH 7.4, and (ii) for tests conducted in plasma, an anticoagulant (sodium heparin or sodium citrate). Each test compound (5 μM) was incubated in PBS or plasma at 37° C. on a THERMOMIXER® with shaking Three samples (n=3) were taken at each of seven sampling time points: 0, 10, 30, 60, 90, 180 and 360 minutes. The samples were immediately combined with 3 volumes (i.e., 3 times the volume of PBS or plasma) of acetonitrile containing 1% formic acid and an internal standard to terminate the reaction. AB SCIEX API 3000 LC-MS/MS analysis of the test compounds was performed without a standard curve. Half-lives (T1/2) of the test compounds were determined from graphs of the percent remaining values using the peak area response ratio."}, "[2]": {"test": "Solubility by visual assessment in pH 4 buffer", "type": "physicochemical", "conditions": "pH 4 citrate buffer, pH 4, aqueous buffer, thermodynamic from solid, shaken 5 minutes", "experimental": "Initially, the solubilities of the compounds of formula (1) and formula (2) were measured by visual assessment at 100 μg/mL and 1000 μg/mL in a pH 4 buffer. The buffer was prepared by mixing 660 mL of Solution A (10.5023 g of citric acid dissolved in 1 L of water) and […] of Solution B (14.7010 g of sodium citrate tribasic dihydrate dissolved in 1 L of water). The pH of the buffer was 3.98 as measured by pH meter. Each compound was shaken for about 5 minutes in the pH 4 buffer solution prepared above at two concentration points (100 μg/mL and 1000 μg/mL) and the solubility was observed visually."}, "[3]": {"test": "Solubility in water in the absence of excipients", "type": "physicochemical", "conditions": "for solubility thermodynamic: thermodynamic from solid, read-out: equilibrium solubility in water", "experimental": "Additionally, a sample of the compound of formula (1) was prepared in water to determine the approximate solubility of the compound in the absence of excipients (e.g., CAPTISOL®). A concentration of approximately 300 mg/mL was achieved, not accounting for the volume contribution of the compound. The pH of the sample was determined to be 2.8, which was adjusted to the target of 4.0 using 0.1 N NaOH. Upon pH adjustment, precipitation of a small amount of solid was observed. […] A similar analysis was performed for the compound of formula (2). The compound of formula (2) has a solubility of approximately 10 mg/mL."}, "normal canines": {"test_system": "normal canines", "test": "Hemodynamic efficacy (PV loop analysis) in normal canines", "type": "in vivo, beagle dogs", "conditions": "i.v. infusion", "experimental": "The cardiovascular effects of nitroxyl donors were examined by means of pressure-volume (PV) curve (loops) analysis in conscious, sling-restrained beagle dogs. Animals were allowed free access to drinking water and a commercial canine diet under standard laboratory conditions. Fluorescent lighting was provided via an automatic timer for approximately 12 hours per day. On occasion, the dark cycle was interrupted intermittently due to study-related activities. Temperature and humidity were monitored and recorded daily and maintained to the maximum extent possible between 64° F. and 84° F. and 30% to 70%, respectively. The dogs were acclimated for a period of at least 1 week prior to surgery. Following surgery and recovery the animals were acclimated to sling restraint for a period up to 4.5 hours. Animals were fasted overnight prior to surgery.\nOnce a stable (surgical) plane of anesthesia had been established, a left-thoracotomy was performed (under strict aseptic conditions) and each animal was chronically instrumented with sono-micrometry crystals providing left-ventricular (LV) dimensions/volume. Additionally, a fluid-filled catheter and a solid-state monometer were placed in the left ventricle for pressure monitoring. A fluid-filled catheter was placed in the right ventricle (RV) and the aorta (Ao) for pressure monitoring/test article administration. […] The catheters/wires were aseptically tunneled and externalized between the scapulae. Over the course of the study, fluid-filled catheters were regularly (at least once weekly) flushed with a locking-solution in order to prevent both clotting and bacterial growth (2-3 mL of Taurolidine-Citrate solution, TCS-04; Access Technologies).\nThe animals (normal or heart failure) were studied during treatment with both vehicle (control) and a nitroxyl donor (either CXL-1020, a compound of formula (1) or a compound of formula (2)). At each dosing period, conscious sling-restrained animals were continuously monitored for up to two to three hours. Following hemodynamic stabilization, infusion of the vehicle was started. […] Infusion of the vehicle was continued and after 30 min another (baseline) set of hemodynamic data was collected. Following collection of baseline hemodynamic data, infusion of the nitroxyl donor compound being tested was initiated and derived hemodynamic/functional parameters were obtained/performed at up to four (4) time points selected from the following: at 30, 60, 90, 120, and 180 minutes after the onset of vehicle/test compound infusion. For the placebo or time-control treatment group, each animal was administered an infusion of an appropriate placebo for up to 180 minutes. In all cases, the test compound was delivered at a constant intravenous infusion rate of 1 mL/kg/hr and was compared at a molar equivalent dose rate.\nThe resulting left-ventricular pressure and volume data were analyzed in order to generate relationships representing the contractile and energetic state of the myocardium. Systolic arterial pressure (SAP), diastolic arterial pressure (DAP), and mean arterial pressure (MAP) were collected. Left-ventricular mechanical and/or geometrical indices were obtained from the pressure (ESP, EDP, dP/dt max/min, time-constant of relaxation-tau [based on mono-exponential decay with non-zero asymptote]) and volume (end-systolic volume (ESV), end diastolic volume (EDV), stroke volume (SV)) signal. In addition, the following measurements were derived from left-ventricular pressure-volume data (PV loops) generated during brief periods of preload reduction: pressure volume area (PVA) and stroke work (SW), end-systolic (ESPVR) and end-diastolic (EDPVR) pressure volume relationships, and end systolic pressure and stroke volume relationship (arterial elastance (Ea)). Representative data obtained from studies in normal dogs and heart failure dogs is shown in Table 5 and Table 6, respectively. A SVR (systemic vascular resistance) decrease correlates with vasodilation."}, "[4]": {"conditions": "100 μg/mL, read-out: Solubility (100 μg/mL)"}, "[5]": {"conditions": "1000 μg/mL, read-out: Solubility (1000 μg/mL)"}, "[6]": {"conditions": "dose rate 50 (μmol/kg/min [sic])"}}, "note": "Where two headings read alike, the source gives them in different places.", "data": [{"compound": "Cc1ccc(S(=O)(=O)NO)o1", "note": "[Compound (1), N-Hydroxy-5-methylfuran-2-sulfonamide]", "values": [{"measurement": "half-life at 5 μM", "setting": "[1]", "value": 25, "unit": "min"}, {"measurement": "solubility at 5 min", "setting": "[2]; [4]", "value": "> 100", "unit": "µg/mL"}, {"measurement": "solubility at 5 min", "setting": "[2]; [5]", "value": "> 1000", "unit": "µg/mL"}, {"measurement": "pH of the sample in water", "setting": "[3]; approximately 300 mg/mL in water before pH adjustment", "value": 2.8}, {"measurement": "solubility thermodynamic", "setting": "[3]; water, no excipients", "value": "> 100000", "unit": "µg/mL"}, {"measurement": "solubility", "setting": "[3]; water without excipients, pH 2.8, thermodynamic from solid, water, no excipients, not accounting for the volume contribution of the compound, read-out: concentration achieved in water", "value": "≥ 300000", "unit": "µg/mL"}, {"measurement": "observed solution concentration by HPLC", "setting": "[3]; water, after pH adjustment to 4.0 with 0.1 N NaOH", "value": 268, "unit": "mg/mL"}, {"measurement": "EDV (% Change from Baseline)", "setting": "normal canines; [6]", "value": "−6 ± 2", "unit": "%"}, {"measurement": "ESP (% Change from Baseline)", "setting": "normal canines; [6]", "value": "−18 ± 2", "unit": "%"}, {"measurement": "ESPVR (% Change from Baseline)", "setting": "normal canines; [6]", "value": "19 ± 1", "unit": "%"}, {"measurement": "HR (% Change from Baseline)", "setting": "normal canines; [6]", "value": "−4 ± 2", "unit": "%"}, {"measurement": "PRSW (% Change from Baseline)", "setting": "normal canines; [6]", "value": "12 ± 1", "unit": "%"}, {"measurement": "SW (% Change from Baseline)", "setting": "normal canines; [6]", "value": "−11 ± 4", "unit": "%"}, {"measurement": "Tau (% Change from Baseline)", "setting": "normal canines; [6]", "value": "−6 ± 1", "unit": "%"}]}, {"compound": "CS(=O)(=O)c1cccc(S(=O)(=O)NO)c1", "note": "[(2), N-Hydroxy-3-methanesulfonylbenzene-1-sulfonamide]", "values": [{"measurement": "half-life at 5 μM", "setting": "[1]", "value": 33, "unit": "min"}, {"measurement": "solubility at 5 min", "setting": "[2]; [4]", "value": "> 100", "unit": "µg/mL"}, {"measurement": "solubility at 5 min", "setting": "[2]; [5]", "value": "> 1000", "unit": "µg/mL"}, {"measurement": "solubility thermodynamic", "setting": "[3]; water, no excipients", "value": "~10000", "unit": "µg/mL"}, {"measurement": "Tau (% Change from Baseline)", "setting": "normal canines; dose rate 100 (μmol/kg/min [sic])", "value": "−6.40 ± 7.11", "unit": "%"}]}]}
